Patent US20080063628A1, “METHODS TO PROMOTE CELL DIFFERENTIATION” (priority 2006, published 2008)

Experiments:
[1] = system: PHA treated PBMCs containing activated T-lymphocytes; assay: Trichostatin A treatment of PBMCs, gene expression by RT-PCR (Example 20); assay type: cell-based, human; conditions: 5 μM
Description: Human peripheral blood mononuclear cells (PBMCs) were isolated from whole blood using Histopaque (Sigma) gradients and standard density centrifugation. PBMCs are a heterogeneous mixture of lymphoid cells including quiescent T-lymphocytes. Cells were washed thoroughly, counted, and resuspended at 1-2×10^6 cells per ml in culture medium containing RPMI-1640 and 10% FCS. Phytohemagglutinin (PHA; Sigma) is a mitogenic lectin that specifically induces T-lymphocyte activation and proliferation. PHA was added to the cell suspension at a final concentration of 10 μg/ml, and PBMCs were cultured for 3 days at 37° C. with 5% CO2. […] At the end of culture, PBMCs were pooled to harvest, washed thoroughly, and resuspended in fresh culture medium with 5 μM trichostatin A diluted in DMSO. A control culture of PHA-treated PBMCs received an equivalent dilution of DMSO alone. Cells were returned to culture for an additional 24 or 48 hours. Alternatively, resting PBMCs were isolated in a similar manner and cultured for 24 or 48 hours total incubation time with either 5 μM trichostatin A or DMSO alone. At the conclusion of culture, cells were harvested and washed with PBS prior to preparation of RNA in RLT lysis buffer with β-mercaptoethanol (Qiagen). RNA was purified using the RNeasy Mini Kit (Qiagen); RNA quantity and quality were determined using a spectrophotometer. CDNA was made using the iScript CDNA synthesis kit (BioRad). Samples of 20 ng CDNA were used in each RT-PCR reaction, performed on the Applied Biosystems 7500. Results were normalized against GAPDH expression levels with data analysis performed using the accompanying software.

[2] = system: amniotic fluid-derived cells; assay: Chronic trichostatin A treatment, gene expression by RT-PCR (Example 4); assay type: cell-based, human
Protocol: Amniotic fluid derived cells were obtained according to the methods described in Example 14. Cells were seeded into a 24-well tissue culture plate at a density of 5000/cm^2 and cultured in AMNIOMAX (Invitrogen) under standard cell culture conditions until confluent. After the cells reached confluency, sample wells were treated with either 500 nM or 1.0 μM trichostatin A diluted in DMSO and medium; control wells were treated with an equivalent concentration of DMSO. At 24 hour intervals over the three day incubation period, cultures underwent a complete medium change, and a fresh dilution of trichostatin A or DMSO was added as appropriate.
RNA samples were obtained from the treated cultures at 24 hour intervals after the initial addition of trichostatin A or DMSO. The culture medium was removed, cells were washed with PBS, and RLT lysis buffer with P-mercaptoethanol (Qiagen) was added. RNA was purified using the RNeasy Mini Kit (Qiagen); RNA quantity and quality was determined using a spectrophotometer. cDNA was made using the iScript cDNA synthesis kit (BioRad).
Expression levels of Sox17, HNF-3 beta, Pdx-1, insulin, and glucagon were determined by RT-PCR. Samples of 20 ng cDNA were used in each reaction, performed on an Applied Biosystems 7500 according to the methods described in Example 15. Data were analyzed using the accompanying software. Human pancreas cDNA was included as a control. Results were normalized against GAPDH expression levels. Basal expression of insulin and Sox-17 genes was detectable in untreated amniotic fluid-derived cells. However, expression of glucagon and Pdx-1 genes was not detectable in untreated cells by RT-PCR up to cycle 40. HNF-3 beta was not detected in untreated cells at 24-hours in culture but was weakly expressed at 48 and 72 hours culture time.
Real-time PCR amplifcation and quantitative analysis. Unless otherwise stated, all reagents were purchased from Applied Biosystems. Real-time PCR reactions were performed using the ABI PRISM™ 7500 Sequence Detection System. TAQMAN™ FAST UNIVERSAL PCR MASTER MIX™ (ABI, CA) was used with 20 ng of reverse transcribed RNA in a total reaction volume of 20 μl. Each cDNA sample was run in duplicate to allow correction of pipetting errors. Primers and FAM-labeled TAQMAN™ probes were used at concentrations of 200 nM. The level of expression for each target gene was normalized using the pre-developed Applied Biosystem's human glyceraldehyde-3-phosphate dehydrogenase (GAPDH) endogenous control kit. Primers and probes were designed using either ABI PRISM PRIMER EXPRESS™ software or a pre-developed ABI gene analysis kit. For each gene, either one of the primers or the probe were designed to be exon-boundary spanning. This eliminated the possibility of the primers/probe binding to any genomic DNA present. The primer and probe sets are listed as follows: Pdx-1 (Hs00426216), Insulin (Hs00355773), glucagon (Hs00174967), and FoxA2 (HNF 3-beta) (Hs00232764). The remaining primers were designed using the PRIMERS program (ABI, CA). After an initial 95° C. incubation for 20 sec, samples were cycled 40 times in two stages: a denaturation step at 95° C. for 3 sec, followed by an annealing/extension step at 60° C. for 30 sec.
For each primer/probe set, a cycle time value was determined as the cycle number at which the fluorescence intensity of the PCR reaction reached a specific value in the middle of the exponential region of amplification. An increase in expression of a gene corresponded to a decrease in the number of cycles required for the fluorescence intensity to reach this value.

[3] = 24 hrs, after 3 days PHA 10 μg/ml
[4] = 48 hours, after 3 days PHA 10 μg/ml

## CC(/C=C/C(=O)NO)=C\[C@@H](C)C(=O)c1ccc(N(C)C)cc1 [trichostatin A]
[1]; 24 or 48 hours
  HNF-3 beta expression: negative
  Sox17 expression: negative
  glucagon expression: negative
  insulin expression: negative
  somatostatin expression: negative
[1]; [3]
  GAPDH gene expression: +++ (detectable at less than 35 cycles by RT-PCR with SE less than 0.9)
  GATA4 gene expression: +++ (detectable at less than 35 cycles by RT-PCR with SE less than 0.9)
  Gata1 gene expression: nd (not detectable at >40 cycles by RT-PCR)
  Pdx-1 gene expression: + (detectable at greater than 35–40 cycles by RT-PCR)
[1]; [4]
  GATA4 gene expression: +++ (detectable at less than 35 cycles by RT-PCR with SE less than 0.9)
  Gata1 gene expression: nd (not detectable at >40 cycles by RT-PCR)
  Pdx-1 gene expression: + (detectable at greater than 35–40 cycles by RT-PCR)
[2]; 500 nM renewed daily, 24 hours
  HNF-3 beta gene expression: +++ (detectable at less than 35 cycles by RT-PCR with std error less than 0.9)
  Insulin gene expression: nd (not detectable at >40 cycles by RT-PCR)
  PDX-1 gene expression: +++ (detectable at less than 35 cycles by RT-PCR with std error less than 0.9)
  Sox17 gene expression: +++ (detectable at less than 35 cycles by RT-PCR with std error less than 0.9)
  glucagon gene expression: + (detectable between 35 and 40 cycles by RT-PCR)
[2]; 500 nM renewed daily, 48 hours
  HNF-3b gene expression: +++ (detectable at less than 35 cycles by RT-PCR with std error less than 0.9)
  Insulin gene expression: nd (not detectable at >40 cycles by RT-PCR)
  PDX-1 gene expression: + (detectable between 35 and 40 cycles by RT-PCR)
  Sox17 gene expression: +++ (detectable at less than 35 cycles by RT-PCR with std error less than 0.9)
  glucagon gene expression: + (detectable between 35 and 40 cycles by RT-PCR)
[2]; 500 nM renewed daily, 72 hours
  HNF-3b gene expression: +++ (detectable at less than 35 cycles by RT-PCR with std error less than 0.9)
  Insulin gene expression: nd (not detectable at >40 cycles by RT-PCR)
  PDX-1 gene expression: +++ (detectable at less than 35 cycles by RT-PCR with std error less than 0.9)
  Sox17 gene expression: +++ (detectable at less than 35 cycles by RT-PCR with std error less than 0.9)
  glucagon gene expression: + (detectable between 35 and 40 cycles by RT-PCR)
[2]; 1 μM renewed daily, 24 hours
  HNF-3 beta gene expression: +++ (detectable at less than 35 cycles by RT-PCR with std error less than 0.9)
  Insulin gene expression: nd (not detectable at >40 cycles by RT-PCR)
  PDX-1 gene expression: +++ (detectable at less than 35 cycles by RT-PCR with std error less than 0.9)
  Sox17 gene expression: +++ (detectable at less than 35 cycles by RT-PCR with std error less than 0.9)
  glucagon gene expression: +++ (detectable at less than 35 cycles by RT-PCR with std error less than 0.9)
[2]; 1 μM renewed daily, 48 hours
  HNF-3b gene expression: +++ (detectable at less than 35 cycles by RT-PCR with std error less than 0.9)
  Insulin gene expression: nd (not detectable at >40 cycles by RT-PCR)
  PDX-1 gene expression: +++ (detectable at less than 35 cycles by RT-PCR with std error less than 0.9)
  Sox17 gene expression: +++ (detectable at less than 35 cycles by RT-PCR with std error less than 0.9)
  glucagon gene expression: ++ (detectable at less than 35 cycles by RT-PCR with std error greater than 0.9)
[2]; 1 μM renewed daily, 72 hours
  HNF-3b gene expression: +++ (detectable at less than 35 cycles by RT-PCR with std error less than 0.9)
  Insulin gene expression: nd (not detectable at >40 cycles by RT-PCR)
  PDX-1 gene expression: +++ (detectable at less than 35 cycles by RT-PCR with std error less than 0.9)
  Sox17 gene expression: +++ (detectable at less than 35 cycles by RT-PCR with std error less than 0.9)
  glucagon gene expression: +++ (detectable at less than 35 cycles by RT-PCR with std error less than 0.9)
